Assay results from patent publication US20200165653A1, “METHOD OF MEASURING FLUID SECRETION FUNCTION OF EPITHELIAL CELLS” (NATIONAL UNIVERSITY CORPORATION TOKYO MEDICAL AND DENTAL …, priority 2017, published 2020).
Where a name gives a salt, the structure may show the parent alone. No end group written: not given here.

How the values were obtained:
[1] = tested on: human intestinal organoids; assay: Organoid swelling observed by phase contrast / time-lapse imaging; format: cell-based; settings: for swelling response induced by endogenous mediator: PGE2 10^−8 M, VIP 10^−7 M, ACh 10^−3 M, histamine 10^−3 M, bradykinin 10^−5 M, serotonin 10^−3 M, up to 60 min after induction; for increase in cross-sectional area of organoids: 60 min after induction, same mediator concentrations as FIG. 11
Experimental: The phase contrast images illustrated are prior to swelling induction and 60 minutes after swelling induction. Scale-bar: 100 μm. Induction was by the addition to a culture medium of: PGE2 (10^−8 M, (A)), VIP (10^−7 M, (B)), ACh (10^−3 M, (C)), histamine (10^−3 M, (D)), bradykinin (10^−5 M, (E)), and serotonin (10^−3 M, (F)).
Examination of Endogenous Mediator Candidates for Anion/Fluid Secretion Next, the fluid secretion function measurement method of the present embodiment was employed to examine the direct effect of various endogenous mediators that might possibly induce anion/fluid secretion from intestinal epithelial cells by testing six types of endogenous mediators to determine if they had the capability to induce a swelling response in organoids equivalent to that of forskolin-induced swelling.

[2] = tested on: human jejunum-derived organoids; assay: Organoid swelling response quantified by cross-sectional area with 3D-scanning system; format: cell-based; settings: for dose-response curve profile of swelling: human jejunal organoid, FIG. 12
Experimental: The organoid cross-sectional area was measured using a 3D-Scanning System (Cell3 […], Screen Holdings, Kyoto, Japan) as the image analysis device 100. […] After the passage of a preliminary culture process of leaving for 24 hours after seeding, scanning was then performed both before and 30 min after the addition of the reagent subject to analysis. An image was acquired during scanning in auto-focus (AF) mode. The analysis parameters summarized in following Table 1 were set and the cross-sectional area of recognized organoids measured automatically. Note that changes over time due to the addition of a reagent subjected to analysis can be observed in the following manner. Namely, an object is imaged at time (T0) prior to adding a reagent subjected to analysis (T0 imaging process). Then the same object is imaged at time (TN) when a prescribed time (30 minutes, for example) has elapsed since adding the reagent subjected to analysis. Determination is then made as to whether or not the object is an object subjected to analysis. By performing the selection process and the determination process, the change over time observations are only made for objects determined be subjected to analysis thereby at both time T0 and time TN. Then in an area change calculation process, an area (A0) at time T0 and an area (AN) at time TN are calculated for the objects subject to analysis. The change over time (%) based thereon can be found, for example, using the following formula. (AN-A0)/A0×100 Using forskolin-induced swelling as a positive control, testing was next performed so see if such a swelling response could be quantified using the 3D-scanning system described. To optimize the quantification efficiency and accuracy, organoids were subjected to analysis after performing the preliminary culture process at one day after the last passage. This was done since the organoids generally held their cystic shape at this time point. The thresholds to recognize cross-section borders of each organoid were then optimized as set out in Table 1. Thus utilizing the fluid secretion function measurement method of the present embodiment enables drug response screening to be performed at the same time as determining the dose-dependency curves of a limited number of test reagents. Whether or not the present system could determine the dose-dependency curves of forskolin was thereby tested. The dose-dependency curve for forskolin-induced swelling when using a human jejunum-derived organoids was thereby found to be expressed by a standard sigmoid shaped curve, with the log EC50 value thereof calculated as -7.58 (FIG. 10).

C=C[C@@]1(C)CC(=O)[C@]2(O)[C@@]3(C)[C@@H](O)CCC(C)(C)[C@@H]3[C@H](O)[C@H](OC(C)=O)[C@@]2(C)O1 [forskolin]
time for which swelling continued ([1]; small intestinal organoids, forskolin 10^−5 M): at least 60 min | time of continuous linear swelling response after stimulation ([2]; forskolin 10^−5 M, observed up to 240 min, area change calculation): up to 30 min | EC50 ([2]; human small intestinal (jejunum-derived) organoids, sigmoid dose-dependency curve, average of at least three independent tests, value is log EC50, read-out: log EC50 of forskolin-induced swelling (converted)): 0.0263 µM

NCCc1c[nH]c2ccc(O)cc12 [serotonin, serotonin hydrochloride]
swelling response induced by endogenous mediator [1]: did not exhibit a clear effect

CCCCC[C@H](O)/C=C/[C@H]1[C@H](O)CC(=O)[C@@H]1C/C=C\CCCC(=O)O [PGE2, prostaglandin E2]
increase in cross-sectional area of organoids [1]: large overall increase | swelling response induced by endogenous mediator [1]: rapid and continuous response | dose-response curve profile of swelling [2]: clear sigmoid-shaped response curve

NCCc1c[nH]cn1 [histamine]
increase in cross-sectional area of organoids [1]: smaller than for PGE2 or VIP | swelling response induced by endogenous mediator [1]: slow and limited response | dose-response curve profile of swelling [2]: markedly lower response profile

vasoactive intestinal polypeptide (HSDAVFTDNYTRLRKQMAVKKYLNSILN; ends and bridges not checked; UniProt P01282 125-152, looked up) [VIP, endogenous mediator acting through Gs-coupled receptors]
increase in cross-sectional area of organoids [1]: large overall increase | swelling response induced by endogenous mediator [1]: rapid and continuous response | dose-response curve profile of swelling [2]: clear sigmoid-shaped response curve
